Data set [1] concerns hESC (HS420) expressing Ki67-SR39h D116E. As to the kind of experiment: ATP-based cell survival assay, GCV-induced cell death. As to conditions: Homo sapiens. The protocol:
Our first generation of suicide gene was engineered with the wild type thymidine kinase (wt-TK). To improve the suicide gene efficacy, we investigated different TK variants; wt-TK, 30-GMK, SR39, SR39h, and SR39h D116E variants. These sequences were chosen based on the analysis of the literature investigating HSV1-TK variants, as well as a gain of function mutation in the CMV UL-97 kinase. The efficacy of each variants was determined as percentage of cell survival following prodrug treatment compared to non-treated hESC. For this purpose, we used the ATP-based assay, which measures cellular ATP content and thereby provides a reliable estimate of the number of healthy cells. The 50% effective concentration (EC50) was defined as the drug concentration required to reduce the percentage of cell survival by 50%. […] In order to optimize our system, we first replaced the wt-TK by the 30-GMK variant, which is a fusion between the 30 TK variant and guanylate kinase (GMK). Note that GMK is mediating the second phosphorylation step of antiviral nucleoside analogs. […] Microbial codon usage might not yield optimal results in human cells. We therefore adapted the SR39 sequence to a typical human codon usage. […]
Figure 1 EC50 of ganciclovir (GCV) in cell expressing different thymidine kinase (TK) variants. […] Number of surviving cells was monitored using bioluminescent ATP-based assay. […]

The test system of data set [2] is ReNcell wt (non-transduced proliferating ReNcells). Nature of the data set: cells. The format is cell-based. The following applies: Homo sapiens; 96 h GCV exposure; read-out: EC50 of GCV, killing of non-transduced proliferating ReNcells. The protocol: Cells were exposed to 100 µM of the respective nucleoside for 48 h. DNA damage was monitored using γ-H2A.X marker in yellow and nuclei were counterstained with Hoechst. The white box in the first column indicates the area of the zoom for the hESC colonies.
Plates were washed twice with DMEM-F12 (Gibco, ThermoFisher; Geneva, Switzerland), then coated with Matrigel (Corning, Lonay, Switzerland) 1/100 in DMEM-F12 and incubate 2 h at 37°. Cells were detached using Accutase and seeded at 2000 cells/well in serum-free culture medium containing 10 µM of ROCK inhibitor. At 24 h, the cell culture was continued without ROCK inhibitor. […] Drugs were prepared by serial dilution (two-fold) in 100% DMSO. At 48 h after seeding, cells were exposed to antiviral drugs for 96 h. For EC50 assays, the medium was changed daily for 4 days, then cell viability was assessed using an ATP-based assay. EC50 values for each construct were calculated using a four parameters equation (GraphPad, Prism8, San Diego, CA, USA). The same procedure was used for the cell death kinetic determinations except the treatment duration. Luminescence was measured using Spectra L384/L96 (0.2 sec exposure, Molecular devices, Biberach an der Riß, Germany).

The next data set concerns host cell DNA. The following applies: cited from earlier work.
Data set [3] relates to sister chromatid exchange. Set-up: method as in PMID 10719044. The following applies: at concentrations far below those impairing the proliferative activity; cited from earlier work.
Data set [4] relates to hESC (HS420) expressing Ki67-SR39h. As to the kind of experiment: ATP-based cell survival assay, nucleoside-induced cell death. As to conditions: for EC50: Homo sapiens, 96 h.

The structures appear in SMILES notation. Like-named read-outs stand apart in the source and are kept apart here.

For `Nc1nc(O)c2ncn(COC(CO)CO)c2n1` [GCV, ganciclovir], the EC50 came to 0.56 nM in data set [1] (96 h, read-out: GCV EC50 in M); 0.6 nM in data set [1] (96 h GCV exposure, SR39h D116E variant, read-out: EC50 of GCV (cell survival)); 12000 nM in data set [2]; 0.2 nM in data set [4] (read-out: EC50 (cell survival), 96 h nucleoside exposure, SR39h under Ki67 promoter); 0.19 nM in data set [4] (read-out: GCV EC50 in M, 96 h GCV exposure, Ki67-SR39h). Moreover, the “Fragmentation of host cell DNA” value with host cell DNA is “induce fragmentation of host cell DNA”. The “Induction of sister chromatid exchange” value in data set [3] is on record as “potent inducer of sister chromatid exchange”. In addition, the “Cell death induction in SR39h-expressing cells (in words)” value in data set [4] (96 h nucleoside exposure) is listed as “strong suicide inducers”. Further, in data set [4] (GCV EC50, SR39h vs SR39), the “Fold more performant than SR39” value was found to be 10 fold.

The record behind these values is article PMC8834506, “Optimization of Thymidine Kinase-Based Safety Switch for Neural Cell Therapy” (Cells, 2022).
